Results from ChEMBL document CHEMBL1201862, “PubChem BioAssay data set” (2004).
Active and inactive are the calls of the source.

How the values were obtained:
[1] = target: Voltage-dependent T-type calcium channel subunit alpha-1H (Homo sapiens, UniProt O95180); type: functional;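 note: channel activity triggered by adding a high calcium stimulation buffer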
[2] = target: T1, Histone-lysine N-methyltransferase NSD2 (Homo sapiens, UniProt O96028); type: biochemical
T1 sequence (O96028 whole entry): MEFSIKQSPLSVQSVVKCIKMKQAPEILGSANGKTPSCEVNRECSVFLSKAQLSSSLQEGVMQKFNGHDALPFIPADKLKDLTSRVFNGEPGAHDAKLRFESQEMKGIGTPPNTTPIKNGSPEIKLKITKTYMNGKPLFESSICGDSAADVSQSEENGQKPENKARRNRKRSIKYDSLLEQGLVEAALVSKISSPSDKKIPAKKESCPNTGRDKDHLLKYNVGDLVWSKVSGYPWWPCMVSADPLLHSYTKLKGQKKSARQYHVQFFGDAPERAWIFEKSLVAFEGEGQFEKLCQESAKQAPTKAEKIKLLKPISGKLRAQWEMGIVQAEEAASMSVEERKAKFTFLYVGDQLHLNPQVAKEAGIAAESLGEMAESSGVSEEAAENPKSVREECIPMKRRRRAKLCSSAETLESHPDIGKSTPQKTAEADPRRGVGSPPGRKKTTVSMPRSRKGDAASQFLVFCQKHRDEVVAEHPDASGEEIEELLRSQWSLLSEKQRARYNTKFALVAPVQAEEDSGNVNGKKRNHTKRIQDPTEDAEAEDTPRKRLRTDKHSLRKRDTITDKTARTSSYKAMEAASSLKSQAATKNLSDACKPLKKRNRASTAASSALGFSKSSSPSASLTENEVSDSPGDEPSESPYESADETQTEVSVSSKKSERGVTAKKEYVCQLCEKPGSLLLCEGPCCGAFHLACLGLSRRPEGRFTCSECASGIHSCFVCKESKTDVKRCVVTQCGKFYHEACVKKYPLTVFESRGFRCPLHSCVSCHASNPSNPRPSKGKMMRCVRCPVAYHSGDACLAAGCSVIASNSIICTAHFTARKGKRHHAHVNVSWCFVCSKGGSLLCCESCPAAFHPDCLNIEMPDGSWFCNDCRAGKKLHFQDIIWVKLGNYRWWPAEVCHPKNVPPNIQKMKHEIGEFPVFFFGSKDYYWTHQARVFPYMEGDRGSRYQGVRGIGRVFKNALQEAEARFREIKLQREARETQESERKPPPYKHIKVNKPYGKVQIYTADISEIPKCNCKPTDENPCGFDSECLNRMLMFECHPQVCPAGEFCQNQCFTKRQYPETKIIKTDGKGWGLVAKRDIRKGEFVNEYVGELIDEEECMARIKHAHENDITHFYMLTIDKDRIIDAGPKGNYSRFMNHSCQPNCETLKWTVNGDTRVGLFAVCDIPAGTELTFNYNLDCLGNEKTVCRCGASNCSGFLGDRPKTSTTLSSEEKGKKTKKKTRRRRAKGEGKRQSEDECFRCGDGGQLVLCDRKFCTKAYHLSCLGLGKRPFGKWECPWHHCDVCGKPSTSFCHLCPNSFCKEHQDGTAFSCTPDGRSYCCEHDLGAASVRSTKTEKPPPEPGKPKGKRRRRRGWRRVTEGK

Procathepsin L = Procathepsin L (Homo sapiens, UniProt P07711)
Chain of Procathepsin L (P07711 whole entry): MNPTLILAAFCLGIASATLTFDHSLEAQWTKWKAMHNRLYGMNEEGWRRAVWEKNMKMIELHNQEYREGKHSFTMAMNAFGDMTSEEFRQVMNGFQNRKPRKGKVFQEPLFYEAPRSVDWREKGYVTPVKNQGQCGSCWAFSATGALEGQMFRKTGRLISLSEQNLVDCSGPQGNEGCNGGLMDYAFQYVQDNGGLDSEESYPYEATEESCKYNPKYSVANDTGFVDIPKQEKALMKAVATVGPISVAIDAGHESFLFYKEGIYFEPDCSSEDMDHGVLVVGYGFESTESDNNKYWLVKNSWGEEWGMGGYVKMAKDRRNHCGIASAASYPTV

Aspartyl aminopeptidase = target: T2, Aspartyl aminopeptidase (Plasmodium falciparum 3D7, UniProt Q8I2J3)
T2 sequence (Q8I2J3 whole entry): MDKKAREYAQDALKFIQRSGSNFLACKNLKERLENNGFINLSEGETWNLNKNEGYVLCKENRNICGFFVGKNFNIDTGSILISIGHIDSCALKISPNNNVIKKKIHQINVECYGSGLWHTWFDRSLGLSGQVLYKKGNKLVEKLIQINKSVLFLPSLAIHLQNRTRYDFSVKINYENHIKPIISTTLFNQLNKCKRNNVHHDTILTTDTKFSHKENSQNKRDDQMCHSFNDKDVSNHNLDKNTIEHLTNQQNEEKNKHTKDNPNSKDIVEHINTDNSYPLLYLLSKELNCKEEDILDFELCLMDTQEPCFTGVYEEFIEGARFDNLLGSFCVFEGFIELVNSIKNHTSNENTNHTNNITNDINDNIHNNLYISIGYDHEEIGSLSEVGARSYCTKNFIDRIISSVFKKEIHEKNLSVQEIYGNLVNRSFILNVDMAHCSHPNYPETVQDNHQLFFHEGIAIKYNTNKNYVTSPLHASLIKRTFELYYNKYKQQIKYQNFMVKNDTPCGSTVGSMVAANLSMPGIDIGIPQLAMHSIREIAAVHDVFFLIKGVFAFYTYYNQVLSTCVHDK

Albumin = Albumin (Bos taurus, UniProt P02769); experiment: Counterscreen for inhibitors of T-cell receptor (TCR)-CD3 interaction: Fluorescence-based biochemical high throughput dose response assay to identify inhibitors of T-cell receptor (TCR)-CD3 interaction using a TAMRA-labeled BSA probe.; type: functional
[3] = target: T3, Rac GTPase-activating protein 1 (Homo sapiens, UniProt Q9H0H5); experiment: blockers of MgcRacGAP-driven Rac1 GTP hydrolysis – biochemical, ADP Hunter fluorescence, primary and confirmatory, confirmation (AID 624330); type: functional
T3 sequence (Q9H0H5 whole entry): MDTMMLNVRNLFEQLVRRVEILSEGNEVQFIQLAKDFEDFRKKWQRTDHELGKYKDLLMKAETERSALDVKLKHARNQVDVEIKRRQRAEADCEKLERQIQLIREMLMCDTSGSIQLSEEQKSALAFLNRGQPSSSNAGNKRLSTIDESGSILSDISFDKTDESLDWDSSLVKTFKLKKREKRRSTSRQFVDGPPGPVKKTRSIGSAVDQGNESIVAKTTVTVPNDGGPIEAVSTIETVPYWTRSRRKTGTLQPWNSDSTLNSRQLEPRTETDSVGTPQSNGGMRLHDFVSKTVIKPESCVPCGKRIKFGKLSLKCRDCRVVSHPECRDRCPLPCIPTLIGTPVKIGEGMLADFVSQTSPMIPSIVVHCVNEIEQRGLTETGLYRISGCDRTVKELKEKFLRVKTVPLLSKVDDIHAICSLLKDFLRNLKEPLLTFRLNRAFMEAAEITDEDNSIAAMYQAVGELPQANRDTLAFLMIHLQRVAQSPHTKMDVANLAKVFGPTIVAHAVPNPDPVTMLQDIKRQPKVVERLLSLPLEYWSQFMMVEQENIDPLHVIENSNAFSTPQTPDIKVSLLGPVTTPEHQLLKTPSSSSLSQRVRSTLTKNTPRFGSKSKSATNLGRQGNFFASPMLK

Hexokinase HKDC1 = target: T4, Hexokinase HKDC1 (Homo sapiens, UniProt Q2TB90); experiment: inhibition of HKDC1 glucose phosphorylation – biochemical, W721R variant, dose response (AID 504729); type: functional
T4 sequence (Q2TB90 whole entry): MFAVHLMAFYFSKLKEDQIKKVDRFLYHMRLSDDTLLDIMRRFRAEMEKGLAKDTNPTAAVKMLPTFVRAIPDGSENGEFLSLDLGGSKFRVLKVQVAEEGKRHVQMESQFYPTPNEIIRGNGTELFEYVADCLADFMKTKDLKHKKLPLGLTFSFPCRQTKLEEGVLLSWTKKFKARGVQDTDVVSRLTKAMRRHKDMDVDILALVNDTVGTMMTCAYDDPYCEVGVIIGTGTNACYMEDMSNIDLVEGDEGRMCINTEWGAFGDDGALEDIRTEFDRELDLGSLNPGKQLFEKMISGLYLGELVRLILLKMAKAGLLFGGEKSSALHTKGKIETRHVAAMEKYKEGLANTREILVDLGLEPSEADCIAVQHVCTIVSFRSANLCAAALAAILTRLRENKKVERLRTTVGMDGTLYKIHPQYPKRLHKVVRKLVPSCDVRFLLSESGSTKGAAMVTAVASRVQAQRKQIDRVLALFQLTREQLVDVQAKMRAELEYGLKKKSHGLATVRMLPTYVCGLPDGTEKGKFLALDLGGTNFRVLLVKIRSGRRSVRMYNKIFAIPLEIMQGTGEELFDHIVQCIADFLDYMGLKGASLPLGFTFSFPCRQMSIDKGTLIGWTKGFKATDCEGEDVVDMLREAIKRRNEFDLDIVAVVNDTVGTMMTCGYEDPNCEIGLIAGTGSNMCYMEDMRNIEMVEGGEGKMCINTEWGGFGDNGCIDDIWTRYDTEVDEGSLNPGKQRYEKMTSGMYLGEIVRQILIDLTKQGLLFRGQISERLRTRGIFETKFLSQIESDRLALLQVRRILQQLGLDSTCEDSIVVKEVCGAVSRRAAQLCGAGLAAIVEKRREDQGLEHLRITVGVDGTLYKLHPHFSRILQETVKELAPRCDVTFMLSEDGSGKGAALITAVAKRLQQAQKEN

[4] = target: Intestinal-type alkaline phosphatase (Homo sapiens, UniProt P09923); experiment: Dose Response confirmation of uHTS hits from a small molecule inhibitors of human intestinal alkaline phosphatase via a luminescent assay. [Related pubchem assays (depositor defined):AID2544, AID2574]; type: functional
Chain of Intestinal-type alkaline phosphatase (P09923 whole entry): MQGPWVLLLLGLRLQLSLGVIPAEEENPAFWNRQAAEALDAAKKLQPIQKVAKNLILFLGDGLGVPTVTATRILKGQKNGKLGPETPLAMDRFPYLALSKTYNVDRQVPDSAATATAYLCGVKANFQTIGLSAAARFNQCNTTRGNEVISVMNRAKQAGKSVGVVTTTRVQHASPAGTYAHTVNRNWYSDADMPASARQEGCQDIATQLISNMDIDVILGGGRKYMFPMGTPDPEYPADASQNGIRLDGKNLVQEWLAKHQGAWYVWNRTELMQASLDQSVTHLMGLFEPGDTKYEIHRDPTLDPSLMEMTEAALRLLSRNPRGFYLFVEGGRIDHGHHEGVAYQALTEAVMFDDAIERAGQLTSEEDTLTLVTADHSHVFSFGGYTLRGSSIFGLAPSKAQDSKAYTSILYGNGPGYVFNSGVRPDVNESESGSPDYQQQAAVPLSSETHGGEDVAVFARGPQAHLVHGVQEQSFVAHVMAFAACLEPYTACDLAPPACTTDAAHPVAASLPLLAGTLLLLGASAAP

[5] = Luminescence Cell-Based Dose Response HTS to Identify Activators of Luciferase Translation or Activity in H4 […] Cells. [Related pubchem assays: 1829 (Project Summary), 1814 (Primary HTS)]; type: functional
[6] = Luminescence Cell-Based Dose Confirmation HTS to Identify Inhibitors of Platelet Dense Granule Release. [Related pubchem assays: 1663 (Primary HTS), 1678 (Summary of Project)]; type: functional
[7] = target: Luciferin 4-monooxygenase (Photinus pyralis, UniProt P08659); experiment: inhibition of purified Photinus pyralis luciferase – biochemical, luminescence, dose response (AID 1891)
[8] = target: Lysosomal acid glucosylceramidase (Homo sapiens, UniProt P04062); experiment: Dose response cell-based high throughput screening assay to identify enhancers of beta-glucosidase activity. [Related pubchem assays: 784 ]; type: functional
Chain of Lysosomal acid glucosylceramidase (P04062 whole entry): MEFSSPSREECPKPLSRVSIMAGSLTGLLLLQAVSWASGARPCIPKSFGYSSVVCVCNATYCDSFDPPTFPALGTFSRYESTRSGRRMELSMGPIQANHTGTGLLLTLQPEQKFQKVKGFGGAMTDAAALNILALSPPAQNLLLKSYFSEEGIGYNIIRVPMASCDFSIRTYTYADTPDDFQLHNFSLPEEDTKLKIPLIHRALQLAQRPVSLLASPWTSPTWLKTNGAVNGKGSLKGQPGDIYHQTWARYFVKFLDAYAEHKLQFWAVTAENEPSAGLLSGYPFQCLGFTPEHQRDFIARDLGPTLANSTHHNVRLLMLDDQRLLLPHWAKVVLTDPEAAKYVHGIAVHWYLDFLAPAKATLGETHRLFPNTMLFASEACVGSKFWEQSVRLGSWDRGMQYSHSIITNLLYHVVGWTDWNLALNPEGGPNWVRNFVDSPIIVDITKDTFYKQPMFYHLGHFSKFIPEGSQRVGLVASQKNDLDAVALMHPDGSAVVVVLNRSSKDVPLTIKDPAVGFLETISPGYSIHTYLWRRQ

[9] = Luminescence Cell-Based Dose Retest to Confirm Inhibitors of Cancer Stem Cells. [Related pubchem assays (depositor defined):AID2717, AID2721]; type: functional; conditions: Homo sapiens
[10] = blockers of HIV-1 ZM109 envelope-driven cell-cell fusion – HeLa effector, CEM target cells, luciferase, cherry-pick, dose response (AID 652058); type: functional, cell-based;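 note: luciferase signal from HIV-1 Env mediated cell-cell fusion of effector and target cells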
SUMO-activating enzyme [11] = target: T5, SUMO-activating enzyme (Homo sapiens, UniProt Q9UBT2); experiment: blockers of UBC9-mediated SUMO conjugation – biochemical, AlphaScreen, SUMOylation inhibitor project, confirmation (AID 2018); type: functional
T5 sequence (Q9UBE0 whole entry): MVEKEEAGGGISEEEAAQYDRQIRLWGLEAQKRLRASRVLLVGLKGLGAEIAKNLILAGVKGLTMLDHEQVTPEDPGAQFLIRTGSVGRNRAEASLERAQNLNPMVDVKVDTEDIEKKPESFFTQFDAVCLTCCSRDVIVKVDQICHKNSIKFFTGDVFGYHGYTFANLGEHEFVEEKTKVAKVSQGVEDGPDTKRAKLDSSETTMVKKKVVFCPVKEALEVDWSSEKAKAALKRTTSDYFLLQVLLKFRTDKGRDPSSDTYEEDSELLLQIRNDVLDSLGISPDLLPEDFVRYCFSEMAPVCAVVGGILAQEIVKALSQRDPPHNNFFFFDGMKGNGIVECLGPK
T5 sequence (Q9UBT2 whole entry): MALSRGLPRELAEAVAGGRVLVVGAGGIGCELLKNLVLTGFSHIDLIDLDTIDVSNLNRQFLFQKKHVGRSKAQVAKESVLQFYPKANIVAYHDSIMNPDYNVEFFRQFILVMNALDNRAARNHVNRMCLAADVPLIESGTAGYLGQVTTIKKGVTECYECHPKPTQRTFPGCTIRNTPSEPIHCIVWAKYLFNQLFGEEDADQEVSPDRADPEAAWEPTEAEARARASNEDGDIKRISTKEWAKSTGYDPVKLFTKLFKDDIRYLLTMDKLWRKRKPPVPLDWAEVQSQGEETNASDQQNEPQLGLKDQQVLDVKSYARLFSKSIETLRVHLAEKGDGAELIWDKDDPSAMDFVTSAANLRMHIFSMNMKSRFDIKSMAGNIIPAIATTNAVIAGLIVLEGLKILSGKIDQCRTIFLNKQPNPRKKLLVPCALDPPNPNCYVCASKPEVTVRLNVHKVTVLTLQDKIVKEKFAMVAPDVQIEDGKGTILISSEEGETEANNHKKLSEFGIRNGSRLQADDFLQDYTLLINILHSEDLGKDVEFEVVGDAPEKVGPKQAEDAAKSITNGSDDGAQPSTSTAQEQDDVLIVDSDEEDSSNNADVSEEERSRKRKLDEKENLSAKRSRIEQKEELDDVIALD

Streptococcus = experiment: GAS UMAA2166 growth inhibition – luminescence, BacTiterGlo, counter-screen for streptokinase expression inhibitor project, dose response (AID 1915); type: functional, organism-based;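 note: potency for reduction of bacterial viability or growth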
SUMO-activating enzyme [12] = target: T5, SUMO-activating enzyme; experiment: blockers of SAE1/SAE2–UBC9 SUMO transfer – biochemical, HTRF, uHTS, primary screen (AID 2006); type: protein-complex assay
[13] = alpha-synuclein stem-loop luciferase translation blockers – H4 neuroglioma cells, luminescence, confirmation (AID 1988); type: functional, cell-based
[14] = Luminescence Cell-Based Dose Response HTS to Identify Inhibitors of 5'UTR Stem-Loop Driven Prion Protein mRNA Translation in H4 Neuroglioblastoma Cells. [Related pubchem assays: 1827 (Project Summary), 1813 (Primary HTS)]; type: functional
[15] = HIV-1 AD8 envelope cell-cell fusion blockers – cherry-pick, dose response (AID 652062); type: functional, cell-based;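 note: luciferase signal from cell-cell fusion driven by HIV-1 clade B AD8 Env; potency is for inhibitors of fusion seen as a drop in luminescence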
[16] = blockers of HIV-1 envelope-mediated cell-cell fusion – cherry-pick, dose response (AID 652057); type: functional, cell-based
[17] = off-target signal loss in HeLa-CEM21 co-culture – HeLa F-luc CTL cells, cherry-picked, counter-screen for HIV-1 Env fusion inhibitor project, dose response (AID 652040); type: functional, cell-based;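 note: potency for signal decrease marking cytotoxic or nonspecific inhibition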
[18] = luciferase reporter signal suppression in cells – H4 neuroglioma cells, luminescence, dose response (AID 1990); type: functional, cell-based
[19] = system: Streptococcus sp. 'group A'; experiment: Streptococcus pyogenes SK(-)GAS viability under kanamycin – luminescence, BacTiterGlo, confirmation, counter-screen for streptokinase expression inhibitor project, dose response (AID 1900); type: functional, organism-based

Chain of Voltage-dependent T-type calcium channel subunit alpha-1H (O95180 whole entry): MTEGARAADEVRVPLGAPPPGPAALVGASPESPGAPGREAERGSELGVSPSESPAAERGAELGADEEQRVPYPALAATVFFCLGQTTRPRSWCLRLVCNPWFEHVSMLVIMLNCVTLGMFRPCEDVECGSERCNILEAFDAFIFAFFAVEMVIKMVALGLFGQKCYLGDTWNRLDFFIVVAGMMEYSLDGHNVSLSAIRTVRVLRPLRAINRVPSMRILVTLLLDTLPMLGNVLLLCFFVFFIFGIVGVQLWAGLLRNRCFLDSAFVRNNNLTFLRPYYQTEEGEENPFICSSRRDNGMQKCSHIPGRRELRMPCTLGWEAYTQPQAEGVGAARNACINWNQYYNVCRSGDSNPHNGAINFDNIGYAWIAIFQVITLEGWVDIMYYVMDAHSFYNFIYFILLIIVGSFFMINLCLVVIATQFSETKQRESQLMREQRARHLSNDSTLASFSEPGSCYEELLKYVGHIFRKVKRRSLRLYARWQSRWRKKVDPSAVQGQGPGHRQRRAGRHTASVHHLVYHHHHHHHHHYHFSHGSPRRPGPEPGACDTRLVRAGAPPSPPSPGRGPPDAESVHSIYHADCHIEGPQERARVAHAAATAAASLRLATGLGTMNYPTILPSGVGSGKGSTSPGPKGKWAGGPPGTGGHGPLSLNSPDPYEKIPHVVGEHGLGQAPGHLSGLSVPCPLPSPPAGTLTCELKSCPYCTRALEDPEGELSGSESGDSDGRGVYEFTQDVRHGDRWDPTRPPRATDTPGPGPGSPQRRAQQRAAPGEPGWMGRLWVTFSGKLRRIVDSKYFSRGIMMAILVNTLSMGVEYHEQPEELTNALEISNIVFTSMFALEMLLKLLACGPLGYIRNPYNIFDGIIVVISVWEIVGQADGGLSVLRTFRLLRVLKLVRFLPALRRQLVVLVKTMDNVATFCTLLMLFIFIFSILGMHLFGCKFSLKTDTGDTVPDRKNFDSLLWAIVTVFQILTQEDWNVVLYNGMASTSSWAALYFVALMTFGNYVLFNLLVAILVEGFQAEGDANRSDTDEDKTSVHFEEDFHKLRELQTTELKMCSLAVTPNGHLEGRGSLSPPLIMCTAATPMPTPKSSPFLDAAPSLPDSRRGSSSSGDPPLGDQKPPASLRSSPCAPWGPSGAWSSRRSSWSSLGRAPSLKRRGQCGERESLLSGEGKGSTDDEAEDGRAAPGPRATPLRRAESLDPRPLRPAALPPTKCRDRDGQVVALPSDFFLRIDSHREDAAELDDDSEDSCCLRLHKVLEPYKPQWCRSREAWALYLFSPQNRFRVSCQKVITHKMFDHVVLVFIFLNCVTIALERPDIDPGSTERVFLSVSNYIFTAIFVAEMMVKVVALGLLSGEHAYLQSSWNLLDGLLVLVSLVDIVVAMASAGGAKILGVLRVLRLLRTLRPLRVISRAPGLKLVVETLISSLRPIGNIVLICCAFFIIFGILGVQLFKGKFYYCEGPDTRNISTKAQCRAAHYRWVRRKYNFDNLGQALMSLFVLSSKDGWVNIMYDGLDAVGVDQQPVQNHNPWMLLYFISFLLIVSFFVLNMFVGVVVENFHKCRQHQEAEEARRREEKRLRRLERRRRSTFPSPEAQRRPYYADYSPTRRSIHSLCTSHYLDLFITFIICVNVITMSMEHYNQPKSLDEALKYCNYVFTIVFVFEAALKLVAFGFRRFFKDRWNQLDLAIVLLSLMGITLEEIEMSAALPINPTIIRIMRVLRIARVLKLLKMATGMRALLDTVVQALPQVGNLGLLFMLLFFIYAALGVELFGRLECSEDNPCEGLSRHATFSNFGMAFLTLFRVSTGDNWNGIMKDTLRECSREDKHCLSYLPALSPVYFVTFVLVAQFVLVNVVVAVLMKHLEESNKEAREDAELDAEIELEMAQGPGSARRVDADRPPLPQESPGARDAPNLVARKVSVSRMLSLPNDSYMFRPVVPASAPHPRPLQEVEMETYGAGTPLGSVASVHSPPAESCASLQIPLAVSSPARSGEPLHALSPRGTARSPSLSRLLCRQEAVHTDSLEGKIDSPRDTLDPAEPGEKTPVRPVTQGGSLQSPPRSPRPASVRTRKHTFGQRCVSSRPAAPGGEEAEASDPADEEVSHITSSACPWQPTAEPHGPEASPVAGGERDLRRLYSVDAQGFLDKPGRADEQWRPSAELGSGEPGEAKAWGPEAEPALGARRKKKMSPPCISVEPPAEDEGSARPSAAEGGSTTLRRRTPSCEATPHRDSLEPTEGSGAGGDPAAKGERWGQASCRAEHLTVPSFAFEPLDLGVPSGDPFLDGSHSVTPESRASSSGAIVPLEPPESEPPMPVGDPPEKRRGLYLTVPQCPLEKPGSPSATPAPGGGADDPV

c1ccc(OCCSc2nc3ccccc3[nH]2)cc1
EC50 [1]: 5.96 µM (active)

COc1ccc2nc(C)cc(SCC(=O)N/N=C/c3ccc(O)c(O)c3)c2c1
AC50 [2]: > 20 µM (inactive)
IC50 (Procathepsin L): > 59.6 µM (not active)
IC50 (Aspartyl aminopeptidase): 2.48 µM (active)
IC50 (Albumin): > 94.1 µM (inactive)
IC50 [3]: 23.9 µM (active)

O=C(O)c1ccc2ncsc2c1
IC50 (Hexokinase HKDC1): 7.69 µM (active)

CCOC(=O)c1cnc(SCC(=O)c2ccccc2)nc1N
IC50 [4]: > 100 µM (inactive)
EC50 [5]: 0.195 µM (active)

COC(=O)c1ccc(C(=O)OC)c(NC(=O)Nc2ccc3c(c2)OCO3)c1
EC50 [6]: > 112 µM (not active)
EC50 [7]: > 112 µM (not active)
IC50 [4]: > 100 µM (inactive)

Cc1ccn2cc(C(=O)Nc3ccccc3N3CCOCC3)nc2c1
EC50 [8]: > 50 µM (not active)

Cc1ccc(NC(=O)c2cc(S(=O)(=O)N3CCCCC3)cs2)cc1
EC50 [1]: 10.3 µM (active)

N#CCc1ccc(NC(=O)Nc2cccc(Cl)c2)cc1
AC50 [9]: 5.19 µM (active)
EC50 [8]: > 10 µM (not active)

CCCCCCCn1c(NC(=O)CC)nc2ccccc21
AC50 [10]: 47.3 µM (active)
IC50 (SUMO-activating enzyme [11]): 1.62 µM (active)
EC50 (Streptococcus): 10.1 µM (active)
IC50 (SUMO-activating enzyme [12]): 7.82 µM (active)
EC50 [13]: 9.8 µM (active)
EC50 [14]: 13.8 µM (active)
AC50 [15]: 39.4 µM (active)
AC50 [16]: 34.3 µM (active)
AC50 [17]: > 70 µM (inactive)
EC50 [18]: 11.4 µM (active)
EC50 [19]: 2.13 µM (active)
